Experimental data as given in US7998978B2 (Pfizer Inc., priority 2006, dated 2011).

target: T1, JNK1α1 (Homo sapiens, UniProt P45983); test: Coupled spectrophotometric (PK/LDH) JNK1α1 assay: % inhibition and Ki determination; format: biochemical; details: @1 uM; read-out: % Inhibition JNK-1
T1 construct: catalytic domain containing amino acids 1-364 and N-terminal hexahistidine tag; hexahistidine (His6) (N); made in house; host or cells: E. coli BL21 (DE3)
Protocol: % Inhibition and Ki Determination
A coupled spectrophotometric assay, coupling JNK1α1 activity to the oxidation of β-NADH to NAD+ through the action of pyruvate kinase (PK) and lactic dehydrogenase (LDH), was used to determine the potency (percent inhibition at 1 or 10 μM or Ki) of compounds against JNK1α1 (Genbank Accession Number: L26318). […] The reaction was monitored by following the decrease in absorbance at 340 nm. The initial reaction rate was determined by the slope of the change in absorbance. To calculate percent inhibition the rate of the reaction in the presence of 1 or 10 μM compound was compared to the rate of the reaction with only DMSO multiplied by 100 percent. Note, the background rate of the above reaction in the presence of 10 μM PHA-00738186 was subtracted from all rates. […] Y=(−X+Eo−(Ki*(1+A/Km))+((X−Eo+(Ki*(1+A/Km)))^2+4*Eo*(Ki*(1+A/Km)))^0.5)*(Vm*A/(Km+A)/(2*Eo)) Formula: • Parameters: Eo, Ki, A, Km, Vo • Y is initial reaction velocity; • X is inhibitor concentration; • A is [ATP]; • Ki is inhibition constant; • Vm is Vmax; • Eo is total (initial) enzyme concentration; • Km is ATP Km;
The compounds were prepared in 100% DMSO at a 40× concentration. For percent inhibition experiments this would be 400 or 40 μM for 10 and 1 μM final concentration, respectively. For the Ki determination 3× serial dilutions were made starting at 4 mM (100 μM at 1×) in DMSO. A total of 11 concentrations were used for the analysis. The compounds were added to the reaction plate first. Next, a solution containing the HEPES, MgCl2, DTT, peptide substrate, NADH, PEP, PK/LDH enzyme, and JNK1α1—364nHis enzyme was added to the assay plate. The plate was incubated at room temperature for 15 minutes. Then the plate was warmed to 30° C. for 5 minutes. The reaction was initiated with the addition of ATP. The reaction was run in a plate reader at 30° C. for 20 minutes with absorbance readings made about every 10 seconds.
The column with “#” heading refers to compound number as exemplified in the Examples section. The column with “Ki” heading refers to Ki (in nM). The column with “% Inhibition” heading refers to percent inhibition of JNK-1 at 1 μM or 10 μM (in %) unless otherwise stated. ND refers to no data was taken.

T1 sequence (P45983 1-364): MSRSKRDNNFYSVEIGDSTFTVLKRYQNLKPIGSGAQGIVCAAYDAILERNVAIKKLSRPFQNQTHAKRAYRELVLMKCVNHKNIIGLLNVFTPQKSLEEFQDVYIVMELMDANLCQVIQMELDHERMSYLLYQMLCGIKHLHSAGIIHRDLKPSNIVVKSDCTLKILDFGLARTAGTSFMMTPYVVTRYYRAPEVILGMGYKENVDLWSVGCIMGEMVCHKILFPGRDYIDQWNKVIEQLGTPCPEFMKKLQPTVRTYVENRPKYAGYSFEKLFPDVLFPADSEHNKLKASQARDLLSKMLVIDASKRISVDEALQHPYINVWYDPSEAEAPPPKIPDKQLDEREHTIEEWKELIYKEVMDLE

Row | Structure (SMILES) | inhibition at 1 µM
1 | O=C1CC[C@H](COc2ccc3cnc(N[C@H]4CC[C@H](O)CC4)nc3c2)N1 [Example 284, (5R)-5-[({2-[(trans-4-hydroxycyclohexyl)amino]quinazolin-7-yl}oxy)methyl]pyrrolidin-2-one] | 53%
2 | O=C1OCCN1CCOc1ccc2cnc(N[C@H]3CC[C@H](O)CC3)nc2c1 [Example 282, 3-[2-({2-[(trans-4-hydroxycyclohexyl)amino]quinazolin-7-yl}oxy)ethyl]-1,3-oxazolidin-2-one] | 71%
3 | C[C@@H]([C@H](Oc1ccc2cnc(N[C@H]3CC[C@H](O)CC3)nc2c1)c1ccccc1)N(C)C [Example 296, trans-4-[(7-{[(1R,2S)-2-(dimethylamino)-1-phenylpropyl]oxy}quinazolin-2-yl)amino]cyclohexanol] | 14%
4 | Cn1nc(-c2ccncc2)cc1NC(=O)c1cccc2cnc(N[C@H]3CC[C@H](O)CC3)nc12 [Example 317, 2-[(trans-4-hydroxycyclohexyl)amino]-N-(1-methyl-3-pyridin-4-yl-1H-pyrazol-5-yl)quinazoline-8-carboxamide] | 31%
5 | CNC(=O)c1ccc2c(c1)CCO[C@H]2CCOc1ccc2cnc(N[C@H]3CC[C@H](O)CC3)nc2c1 [Example 292, (1S)-1-[2-({2-[(trans-4-hydroxycyclohexyl)amino]quinazolin-7-yl}oxy)ethyl]-N-methyl-3,4-dihydro-1H-isochromene-6-carboxamide] | 54%

Second part, the compound after the results:

Row | inhibition at 1 µM | Structure (SMILES)
6 | 8% | O=C(NCCc1cn2cccnc2n1)c1cccc2cnc(N[C@H]3CC[C@H](O)CC3)nc12 [Example 499, 2-[(trans-4-hydroxycyclohexyl)amino]-N-(2-imidazo[1,2-a]pyrimidin-2-ylethyl)quinazoline-8-carboxamide]
7 | 15% | CC(C)Nc1ncc2ccc(C(=O)N[C@@H]3COC[C@H]3O)cc2n1 [Example 432, N-((3R,4S)-4-hydroxytetrahydrofuran-3-yl]-2-(isopropylamino)quinazoline-7-carboxamide]
8 | 13% | O=C(NC1(CO)CCCC1)c1ccc2cnc(NC3CCC3)nc2c1 [Example 422, 2-(cyctobutylamino)-N-[1-(hydroxymethyl)cyclopentyl]quinazoline-7-carboxamide]
9 | 21% | O=C(NCCO)c1ccc2cnc(NC3CCCC3)nc2c1 [Example 427, 2-(cyclopentylamino)-N-(2-hydroxyethyl)quinazoline-7-carboxamide]
10 | 25% | C[C@@H](NC(=O)c1cccc2cnc(N[C@H]3CC[C@H](O)CC3)nc12)[C@@H](O)c1ccccc1 [Example 472, 2-[(trans-4-hydroxycyclohexyl)amino]-N-[(1R,2S)-2-hydroxy-1-methyl-2-phenylethyl]quinazoline-8-carboxamide]

same assay, conditions: @10 uM; read-out: % Inhibition JNK-1

Row | inhibition at 10 µM | Structure (SMILES)
11 | 43% | Cn1ccnc1-c1ccc(CNc2cc3cc(-c4cn[nH]c4)ccc3cn2)cc1 [Example 230, N-[4-(1-methyl-1H-imidazol-2-yl)benzyl]-6-(1H-pyrazol-4-yl)isoquinolin-3-amine]
12 | 49% | COc1ccc(F)c(CNc2cc3cc(-c4cn[nH]c4)ccc3cn2)c1 [Example 236, N-(2-fluoro-5-methoxybenzyl)-6-(1H-pyrazol-4-yl)isoquinolin-3-amine]

same assay, conditions: JNK-1

Row | Structure (SMILES) | Ki
13 | O=C(c1ccc2cnc(N[C@H]3CC[C@H](O)CC3)nc2c1)N1CCC[C@H]1CO [Example 85, trans-4-[(7-{[(2S)-2-(hydroxymethyl)pyrrolidin-1-yl]carbonyl}quinazolin-2-yl)amino]cyclohexanol] | 3010 nM
14 | O=C(NC1CCS(=O)(=O)C1)c1ccc2cnc(N[C@H]3CC[C@H](O)CC3)nc2c1 (stereo partly drawn) [Example 60, N-(1,1-dioxidotetrahydro-3-thienyl)-2-[(trans-4-hydroxycyclohexyl)amino]quinazoline-7-carboxamide] | 157 nM
15 | CC(C)[C@@H]1CC[C@@H](C)C[C@H]1OCC(=O)Nc1cc2cc(-c3cn[nH]c3)ccc2cn1 [Example 57, 2-{[(1R,2S,5R)-2-isopropyl-5-methylcyclohexyl]oxy}-N-[6-(1H-pyrazol-4-yl)isoquinolin-3-yl]acetamide] | 4 nM
16 | Cc1cc(CNc2cc3cc(-c4cn[nH]c4)ccc3cn2)ccn1 [Example 227, N-[(2-methylpyridin-4-yl)methyl]-6-(1H-pyrazol-4-yl)isoquinolin-3-amine] | 6620 nM
17 | Cc1sc(-c2ccccc2)nc1CC(=O)Nc1cc2cc(-c3cn[nH]c3)ccc2cn1 [Example 46, 2-(5-methyl-2-phenyl-1,3-thiazol-4-yl)-N-[6-(1H-pyrazol-4-yl)isoquinolin-3-yl]acetamide] | 5 nM
18 | CN1CCC(COc2ccc3cnc(N[C@H]4CC[C@H](O)CC4)nc3c2)CC1 [Example 156, trans-4-({7-[(1-methylpiperidin-4-yl)methoxy]quinazolin-2-yl}amino)cyclohexanol] | 988 nM
19 | CN(C)CCOc1ccc2cnc(N[C@H]3CC[C@H](O)CC3)nc2c1 [Example 157, trans-4-({7-[2-(dimethylamino)ethoxy]quinazolin-2-yl}amino)cyclohexanol] | 1780 nM
20 | O=C(Cn1nc(C(F)(F)F)c2c1CCCC2)Nc1cc2cc(-c3cn[nH]c3)ccc2cn1 [Example 37, N-[6-(1H-pyrazol-4-yl)isoquinolin-3-yl]-2-[3-(trifluoromethyl)-4,5,6,7-tetrahydro-1H-indazol-1-yl]acetamide] | 2 nM
21 | FC1(F)CCC(Nc2ncc3cccc(OC4CCOC4)c3n2)CC1 (centres unmarked) [Example 174, N-(4,4-difluorocyclohexyl)-8-(tetrahydrofuran-3-yloxy)quinazolin-2-amine] | 999 nM
22 | COc1ccc(NC(=O)c2ccc3cnc(N[C@H]4CC[C@H](O)CC4)nc3c2)cn1 [Example 349, 2-[(trans-4-hydroxycyclohexyl)amino]-N-(6-methoxypyridin-3-yl)quinazoline-7-carboxamide] | 1010 nM
23 | Oc1ccc2cnc(N[C@H]3CC[C@H](O)CC3)nc2c1 [Example 146, 2-[(trans-4-hydroxycyclohexyl)amino]quinazolin-7-ol] | 178 nM
24 | O=C(NCc1ccccc1)c1cccc2cnc(N[C@H]3CC[C@H](O)CC3)nc12 [Example 124, N-benzyl-2-[(trans-4-hydroxycyclohexyl)amino]quinazoline-8-carboxamide] | 410 nM
25 | O=C(CCc1cccc(C(F)(F)F)c1)Nc1cc2cc(-c3cn[nH]c3)ccc2cn1 [Example 42, N-[6-(1H-pyrazol-4-yl)isoquinolin-3-yl]-3-[3-(trifluoromethyl)phenyl]propanamide] | 5 nM

The remaining lines, values ahead:

Row | Ki | Structure (SMILES)
26 | 235 nM | O=C(NC1(c2ccncc2)CC1)c1cccc2cnc(N[C@H]3CC[C@H](O)CC3)nc12 [Example 455, 2-[(trans-4-hydroxycyclohexyl)amino]-N-(1-pyridin-4-ylcyclopropyl)quinazoline-8-carboxamide]
27 | 490 nM | O=C(NC1(CO)CCCC1)c1ccc2cnc(NC3CCCCC3)nc2c1 [Example 401, 2-(cyclohexylamino)-N-[1-(hydroxymethyl)cyclopentyl]quinazoline-7-carboxamide]
28 | 685 nM | O=C(NC1(c2cccnc2)CC1)c1cccc2cnc(N[C@H]3CC[C@H](O)CC3)nc12 [Example 464, 2-[(trans-4-hydroxycyclohexyl)amino]-N-(1-pyridin-3-ylcyclopropyl)quinazoline-8-carboxamide]
29 | 1390 nM | Cc1nnc(CNC(=O)c2ccc3cnc(N[C@H]4CC[C@H](O)CC4)nc3c2)o1 [Example 355, 2-[(trans-4-hydroxycyclohexyl)amino]-N-[(5-methyl-1,3,4-oxadiazol-2-yl)methyl]quinazoline-7-carboxamide]
30 | 1550 nM | CC[C@@H](CO)NC(=O)c1ccc2cnc(NC3CCC3)nc2c1 [Example 416, 2-(cyclobutylamino)-N-[(1S)-1-(hydroxymethyl)propyl]quinazoline-7-carboxamide]
31 | 107 nM | CC(C)C[C@@H](CO)NC(=O)c1ccc2cnc(N[C@H]3CC[C@H](O)CC3)nc2c1 [Example 375, 2-[(trans-4-hydroxycyclohexyl)amino]-N-[(1S)-1-(hydroxymethyl)-3-methylbutyl]quinazoiine-7-carboxamide]
32 | 1680 nM | O=C(N[C@H](CO)Cc1c[nH]cn1)c1ccc2cnc(N[C@H]3CC[C@H](O)CC3)nc2c1 [Example 417, 2-[(trans-4-hydroxycyclohexyl)amino]-N-[(1S)-2-hydroxy-1-(1H-imidazol-4-ylmethyl)ethyl]quinazoline-7-carboxamide]
